Test results taken from article PMC8362065, “Easily Available, Amphiphilic Diiron Cyclopentadienyl Complexes Exhibit in Vitro Anticancer Activity in 2D and 3D Human Cancer Cells through Redox Modulation Triggered by CO Release” (Chemistry (Weinheim an Der Bergstrasse, Germany), 2021).

Key:
[1] = Carbon monoxide release in 5 % MeOH aqueous solution, headspace GC-TCD; assay type: physicochemical; settings: 37 °C; for eq. CO released: eqCO = nCO/nFe; for % residual complex: 48 h, calculated as [1 – Σ(eqCO)/3]∙100
Procedure: Carbon monoxide release. A stock solution was prepared by dissolving the selected Fe compound (ca. 10 mg) in MeOH (0.50 mL) then diluting with H2O up to 10.0 mL total volume (5 % v/v MeOH). Next, 3.20 mL of the solution (n Fe ca. 6 ⋅ 10^−3 mmol) and a 7x2 mm stir bar were transferred into a 4‐mL screw top vial (1.72 mL neat gas phase volume). The mixture was sealed with a screw cap with a PTFE/silicone septum and heated at 37 °C for 24 h under stirring. Afterwards, the headspace was sampled with a gas tight microsyringe ([…]) and analysed by GC‐TCD. Therefore, the vial was vented, sealed and heated for further 24 h, and GC‐TCD analysis was repeated. The amount of released CO (νCO, mmol) was calculated based on a calibration curve obtained from analyses of known air/CO mixtures (1–10 % v/v), and the number of equivalents released over a 24 h period refers to the initial amount of compound (eqCO=n CO/n Fe). The residual amount of starting diiron complex after 48 h was calculated by assuming the release of 3 equivalents of CO per mole and the total amount of CO released.

[2] = test system: PSN‐1 pancreatic cancer cells; test: Intracellular CO release, fluorescent CO probe; assay type: cell-based, human; settings: PSN‐1 cells, 20 μM, 30 min, fluorescent probe (Figure 4B)
Procedure: (§1) Figure 4 Intracellular detection of iron and carbon monoxide. A) Cellular uptake in PSN‐1 and HEK293 cells; cells were incubated with 50 μM of complexes for 24 h, and the cellular iron content was detected by GFAAS analysis. B) Intracellular CO levels were determined by using a fluorescent probe (BioTracker Carbon Monoxide Probe 1 Live Cell Dye®, Merck, Germany) after 30 min of treatment of PSN‐1 or HEK293 cells with 20 μM [2C]CF3SO3 and [2D]CF3SO3, or 20 μM CORM‐401 as positive control. ** P<0.01, * P<0.05.
(§2) Additional studies were conducted in order to elucidate the mode of action underlying the cell killing effect of the newly synthesized diiron complexes in cancer cells. In particular, based on the evidence of their tendency to slowly release CO in aqueous media (see section on solubility, partition coefficient, stability in aqueous media), we evaluated the ability of the most performant complexes [2C]CF3SO3 and [2D]CF3SO3 to release carbon monoxide inside PSN‐1 pancreatic cancer cells and HEK293 noncancer cells. A fluorometric test was conducted over a short time interval (30 min) by means of a CO sensing dye (Figure 4B). […] The relatively fast release of carbon monoxide within the cell might be associated to the presence of a consistent amount and variety of biological substrates, which can quicken the formation of CO substitution diiron products. As a matter of fact, it is well documented that [2E–F]CF3SO3 are susceptible to replacement of one terminal CO ligand by suitable C‐, P‐, S‐ and N‐donors to give adducts of general formula [Fe2Cp2(CO)(L)(μ‐CO){μ‐CNR(Me)}]^0/+.[[15b], [16a], [20]] Although the nature of L in the cell context is far from being clarified, it is reasonable to speculate that CO release is readily operative via such substitution pathway. However, an acceleration of the route leading to the extensive decomposition of the diiron scaffold (elimination of three COs per complex), as observed in aqueous media, might also contribute.
(§3) Intracellular CO release. PSN‐1 cell (1×10^4) were seeded in 96‐well plates. After 24 h, cells were treated with 20 μM of tested complexes or CORM‐401 (Merck) for […] at 37 °C and followed by 30 min incubation with a fluorescent probe BioTracker Carbon Monoxide Probe 1 Live Cell Dye® (Merck). The intracellular fluorescence, indicative of CO accumulation in cells, was quantified using a VICTOR X3 (PerkinElmer) plate reader.

HEK293 noncancer cells = test: Intracellular CO release, fluorescent CO probe; assay type: cell-based, human; settings: 20 μM, 30 min, fluorescent probe (Figure 4B)
Procedure: as §1, §2, §3

[3] = test system: TrxR in human pancreatic PSN‐1 cancer cells; test: TrxR activity in treated cells, NADPH-dependent reduction of DTNB; assay type: cell-based; settings: PSN‐1 cells, 25 μM, 24 h
Procedure: Figure 6 Effects of compounds [2C]CF3SO3, [2D]CF3SO3 and Auranofin as positive control on TrxR in human pancreatic cells. […] Afterwards, cells were washed twice with PBS and lysed. TrxR activity was tested by measuring the NADPH‐dependent reduction of DTNB. * P<0.05.

[4] = test system: human cancer cell line panel (2008, HCT‐15, PSN‐1, MCF‐7, A375); test: MTT assay, average over the human cancer cell line panel; assay type: cell-based; settings: average over tested cancer cell lines, 72 h
Procedure: The diiron complexes [2A]^+, [2C–E]^+, [3F–G]^+, [5H]^+ (as CF3SO3 salts) and [2B]^+, [4G]^+ (as BF4 salts) were tested for their cytotoxic potential by means of the MTT assay, as reported in the Experimental Section. The most convenient counter anion in terms of preparation and handling/storage was chosen in each case; in particular, [2C]CF3SO3 was included in the study, while [2C]Cl was excluded, being highly moisture sensitive and thus affecting the accuracy of the weighting operation. The in‐house human cancer cell line panel contains examples of ovarian (2008), colon (HCT‐15), pancreatic (PSN‐1), and breast (MCF‐7) cancers as well as of melanoma (A375). Cisplatin was used as a reference and tested under the same experimental conditions. In addition, the cytotoxicity was also evaluated for shorter time of exposure (24 h) towards PSN‐1 cancer cells (Table S5).
MTT assay. The growth inhibitory effect towards tumour cells was evaluated by means of MTT assay as previously described.[57] Briefly, 3–8×10^3 cells/well, dependent upon the growth characteristics of the cell line, were seeded in 96‐well microplates in growth medium (100 μL). After 24 h, the medium was removed and replaced with a fresh one containing the compound to be studied at the appropriate concentration. Triplicate cultures were established for each treatment. After 24 or 72 h, each well was treated with 10 μL of a 5 mg/mL MTT saline solution, and following 5 h of incubation, 100 μL of a sodium dodecyl sulfate (SDS) solution in HCl 0.01 M were added. After an overnight incubation, cell growth inhibition was detected by measuring the absorbance of each well at 570 nm using a Bio‐Rad 680 microplate reader. Mean absorbance for each drug dose was expressed as a percentage of the control untreated well absorbance and plotted against drug concentration. IC50 values, the drug concentrations that reduce the mean absorbance at 570 nm to 50 % of those in the untreated control wells, were calculated by the four‐parameter logistic (4‐PL) model. Evaluation was based on means from at least four independent experiments.

| Substance | eq. CO released ([1]; 0-24 h) [eq.] | eq. CO released ([1]; 24-48 h) [eq.] | % residual complex [1] | Intracellular CO levels [2] | Intracellular CO levels (HEK293 noncancer cells) | residual TrxR cellular activity [3] [%] | IC50 [4] [µM] |
| --- | --- | --- | --- | --- | --- | --- | --- |
| [Fe2Cp2(CO)2(μ‐CO){μ‐CNMe(C6H11)}]X [[2C]CF3SO3] | 0.25 ± 0.02 | 0.23 ± 0.04 | 83-86% | effective in significantly release CO | lower levels of CO were detected | 57 | 17.4 |
| [Fe2Cp2(CO)2(μ‐CO){μ‐CNMe(4‐C6H4OMe)}]CF3SO3 [[2D]CF3SO3] | – | – | – | effective in significantly release CO | lower levels of CO were detected | 39 | 16.6 |
| [Fe2Cp2(CO)2(μ‐CO){μ‐CNMe(CH2PO3Et2)}]X [[2B]BF4] | – | – | – | – | – | – | > 100 |

Second part, led by results:

| eq. CO released ([1]; 0-24 h) [eq.] | eq. CO released ([1]; 24-48 h) [eq.] | % residual complex [1] | Substance | Intracellular CO levels [2] | Intracellular CO levels (HEK293 noncancer cells) | residual TrxR cellular activity [3] [%] | IC50 [4] [µM] |
| --- | --- | --- | --- | --- | --- | --- | --- |
| 0.29 ± 0.06 | 0.27 ± 0.02 | 80-84% | [Fe2Cp2(CO)2(μ‐CO){μ‐CNBn2}]X [[5H]CF3SO3] | – | – | – | – |
| 0.22 ± 0.06 | 0.15 ± 0.01 | 87-88% | [Fe2Cp2(CO)2(μ‐CO){μ‐CNMe(CH2CHCH2)}]X [[3F]CF3SO3] | – | – | – | > 100 |
